# Key:
# Italian ryegrass [1] = experiment: Test Example 5: herbicidal effect by foliage application, plastic box (Table 20, symbol K); type: in vivo, Italian ryegrass (Lolium multiflorum); conditions: amount of applied herbicide 320 g/ha; foliage application after 14-day growth; evaluated three weeks after application
# In short: (§1)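 Sow seeds spot-wise in sterilized diluvial soil; cover with ~1.5 cm soil. Grow 14 days in greenhouse, 25° C. to 30° C. Spray foliage with emulsion diluted to predetermined amount. Rate effect after 3 weeks.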
# barnyard grass [2] = experiment: Test Example 3: herbicidal effect by foliage application, Wagner pot (Table 18, symbol H); type: in vivo, barnyard grass (Echinochloa crus-galli); conditions: 320 g/ha
# In short: (§2)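 Plants were sown in alluvial soil held under 0.1–0.5 cm standing water and grown 14 days in a greenhouse at 25–30 °C. An emulsifiable formulation, water-diluted to the set dose, was then sprayed onto the foliage, and effects were scored three weeks later using previously defined criteria.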
# wild oat [3] = experiment: Test Example 5: herbicidal effect by foliage application, plastic box (Table 20, symbol I); type: in vivo, wild oat (Avena fatua); conditions: amount of applied herbicide 320 g/ha; foliage application after 14-day growth; evaluated three weeks after application
# In short: as §1
# rice flat sedge = experiment: Test Example 3: herbicidal effect by foliage application, Wagner pot (Table 18, symbol E); type: in vivo, rice flat sedge (Cyperus iria); conditions: 320 g/ha
# In short: as §2
# persian speedwell [4] = experiment: Test Example 5: herbicidal effect by foliage application, plastic box (Table 20, symbol R); type: in vivo, Persian speedwell (Veronica persica); conditions: amount of applied herbicide 320 g/ha; foliage application after 14-day growth; evaluated three weeks after application
# In short: as §1
# windgrass [5] = experiment: Test Example 4: herbicidal effect by soil treatment (Table 19, symbol L); type: in vivo, windgrass (Apera spica-venti); conditions: amount of applied herbicide 320 g/ha
# In short: (§3)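 Soil-surface application: an emulsion agent diluted with water to the predetermined dose is sprayed uniformly over seeds lying under roughly 1.5 cm of sterilized diluvial soil. Boxes stay in a greenhouse at 25° C. to 30° C. Three weeks later, each species is graded on previously defined criteria.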
# lambsquarters [6] = experiment: Test Example 5: herbicidal effect by foliage application, plastic box (Table 20, symbol O); type: in vivo, lambsquarters (Chenopodium album); conditions: amount of applied herbicide 320 g/ha; foliage application after 14-day growth; evaluated three weeks after application
# In short: as §1
# Chinese sprangletop = experiment: Test Example 3: herbicidal effect by foliage application, Wagner pot (Table 18, symbol D); type: in vivo, chinese sprangletop (Leptochloa chinensis); conditions: 320 g/ha
# In short: as §2
# green foxtail [7] = experiment: Test Example 4: herbicidal effect by soil treatment (Table 19, symbol G); type: in vivo, green foxtail (Setaria viridis); conditions: amount of applied herbicide 320 g/ha
# In short: as §3
# Italian ryegrass [8] = experiment: Test Example 4: herbicidal effect by soil treatment (Table 19, symbol K); type: in vivo, Italian ryegrass (Lolium multiflorum); conditions: amount of applied herbicide 320 g/ha
# In short: as §3
# southern crabgrass [9] = experiment: Test Example 4: herbicidal effect by soil treatment (Table 19, symbol F); type: in vivo, southern crabgrass (Digitaria ciliaris); conditions: amount of applied herbicide 320 g/ha
# In short: as §3
# oval-leafed pondweed = experiment: Test Example 1: herbicidal activity, application before weed generation under submerged conditions (Table 16, symbol C); type: in vivo, oval-leafed pondweed (Monochoria vaginalis); conditions: amount of applied herbicide 320 g/ha
# In short: (§4)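 Alluvial soil was flooded to 4 cm depth, weed seeds were sown mixed and 2.5-leaf rice seedlings were transplanted. On sowing day, the compound's emulsion, diluted in water to a set dose, was applied to the water surface. Plants grew at 25–30 °C and were scored 0–5 after three weeks.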
# lambsquarters [10] = experiment: Test Example 4: herbicidal effect by soil treatment (Table 19, symbol O); type: in vivo, lambsquarters (Chenopodium album); conditions: amount of applied herbicide 320 g/ha
# In short: as §3
# velvetleaf [11] = experiment: Test Example 5: herbicidal effect by foliage application, plastic box (Table 20, symbol M); type: in vivo, velvetleaf (Abutilon theophrasti); conditions: amount of applied herbicide 320 g/ha; foliage application after 14-day growth; evaluated three weeks after application
# In short: as §1
# chickweed [12] = experiment: Test Example 5: herbicidal effect by foliage application, plastic box (Table 20, symbol P); type: in vivo, common chickweed (Stellaria media); conditions: amount of applied herbicide 320 g/ha; foliage application after 14-day growth; evaluated three weeks after application
# In short: as §1
# chickweed [13] = experiment: Test Example 4: herbicidal effect by soil treatment (Table 19, symbol P); type: in vivo, common chickweed (Stellaria media); conditions: amount of applied herbicide 320 g/ha
# In short: as §3
# barnyard grass [14] = experiment: Test Example 4: herbicidal effect by soil treatment (Table 19, symbol H); type: in vivo, barnyard grass (Echinochloa crus-galli); conditions: amount of applied herbicide 320 g/ha
# In short: as §3
# blackgrass [15] = experiment: Test Example 5: herbicidal effect by foliage application, plastic box (Table 20, symbol J); type: in vivo, blackgrass (Alopecurus myosuroides); conditions: amount of applied herbicide 320 g/ha; foliage application after 14-day growth; evaluated three weeks after application
# In short: as §1
# green foxtail [16] = experiment: Test Example 5: herbicidal effect by foliage application, plastic box (Table 20, symbol G); type: in vivo, green foxtail (Setaria viridis); conditions: amount of applied herbicide 320 g/ha; foliage application after 14-day growth; evaluated three weeks after application
# In short: as §1
# persian speedwell [17] = experiment: Test Example 4: herbicidal effect by soil treatment (Table 19, symbol R); type: in vivo, Persian speedwell (Veronica persica); conditions: amount of applied herbicide 320 g/ha
# In short: as §3
# redroot pigweed [18] = experiment: Test Example 4: herbicidal effect by soil treatment (Table 19, symbol N); type: in vivo, redroot pigweed (Amaranthus retroflexus); conditions: amount of applied herbicide 320 g/ha
# In short: as §3
# blackgrass [19] = experiment: Test Example 4: herbicidal effect by soil treatment (Table 19, symbol J); type: in vivo, blackgrass (Alopecurus myosuroides); conditions: amount of applied herbicide 320 g/ha
# In short: as §3
# Japanese bulrush = experiment: Test Example 1: herbicidal activity, application before weed generation under submerged conditions (Table 16, symbol B); type: in vivo, Japanese bulrush (Schoenoplectus juncoides); conditions: amount of applied herbicide 320 g/ha
# In short: as §4
# false cleavers = experiment: Test Example 5: herbicidal effect by foliage application, plastic box (Table 20, symbol Q); type: in vivo, false cleavers (Galium spurium); conditions: amount of applied herbicide 320 g/ha; foliage application after 14-day growth; evaluated three weeks after application
# In short: as §1
# redroot pigweed [20] = experiment: Test Example 5: herbicidal effect by foliage application, plastic box (Table 20, symbol N); type: in vivo, redroot pigweed (Amaranthus retroflexus); conditions: amount of applied herbicide 320 g/ha; foliage application after 14-day growth; evaluated three weeks after application
# In short: as §1
# southern crabgrass [21] = experiment: Test Example 5: herbicidal effect by foliage application, plastic box (Table 20, symbol F); type: in vivo, southern crabgrass (Digitaria ciliaris); conditions: amount of applied herbicide 320 g/ha; foliage application after 14-day growth; evaluated three weeks after application
# In short: as §1
# windgrass [22] = experiment: Test Example 5: herbicidal effect by foliage application, plastic box (Table 20, symbol L); type: in vivo, windgrass (Apera spica-venti); conditions: amount of applied herbicide 320 g/ha; foliage application after 14-day growth; evaluated three weeks after application
# In short: as §1
# barnyard grass [23] = experiment: Test Example 5: herbicidal effect by foliage application, plastic box (Table 20, symbol H); type: in vivo, barnyard grass (Echinochloa crus-galli); conditions: amount of applied herbicide 320 g/ha; foliage application after 14-day growth; evaluated three weeks after application
# In short: as §1
# velvetleaf [24] = experiment: Test Example 4: herbicidal effect by soil treatment (Table 19, symbol M); type: in vivo, velvetleaf (Abutilon theophrasti); conditions: amount of applied herbicide 320 g/ha
# In short: as §3
# late watergrass = experiment: Test Example 1: herbicidal activity, application before weed generation under submerged conditions (Table 16, symbol A); type: in vivo, late watergrass (Echinochloa oryzicola); conditions: amount of applied herbicide 320 g/ha
# In short: as §4
# wild oat [25] = experiment: Test Example 4: herbicidal effect by soil treatment (Table 19, symbol I); type: in vivo, wild oat (Avena fatua); conditions: amount of applied herbicide 320 g/ha
# In short: as §3
smiles,measurement,setting,value
COc1ccccc1-c1sc2cc(F)c(F)cc2c1-c1c(O)c(C)nn(C)c1=O [5-011],"Herbicidal effect by foliage application, K: Italian ryegrass",Italian ryegrass [1],3 (Herbicidal rate of 40% or more and less than 70%)
same,herbicidal effect on barnyard grass (H),barnyard grass [2],5 (Herbicidal rate of 90% or more (almost completely withered))
same,"Herbicidal effect by foliage application, I: wild oat",wild oat [3],3 (Herbicidal rate of 40% or more and less than 70%)
same,herbicidal effect on rice flat sedge (E),rice flat sedge,5 (Herbicidal rate of 90% or more (almost completely withered))
same,"Herbicidal effect by foliage application, R: persian speedwell",persian speedwell [4],5 (Herbicidal rate of 90% or more (almost completely withered))
same,"L: windgrass, herbicidal effect grade",windgrass [5],4 (Herbicidal rate of 70% or more and less than 90%)
same,"Herbicidal effect by foliage application, O: lambsquarters",lambsquarters [6],4 (Herbicidal rate of 70% or more and less than 90%)
same,herbicidal effect on Chinese sprangletop (D),Chinese sprangletop,3 (Herbicidal rate of 40% or more and less than 70%)
same,"G: green foxtail, herbicidal effect grade",green foxtail [7],4 (Herbicidal rate of 70% or more and less than 90%)
same,"K: Italian ryegrass, herbicidal effect grade",Italian ryegrass [8],3 (Herbicidal rate of 40% or more and less than 70%)
same,"F: southern crabgrass, herbicidal effect grade",southern crabgrass [9],3 (Herbicidal rate of 40% or more and less than 70%)
same,"Herbicidal effect, C: oval-leafed pondweed",oval-leafed pondweed,0 (Herbicidal rate of 5% or less (almost no effect))
same,"O: lambsquarters, herbicidal effect grade",lambsquarters [10],5 (Herbicidal rate of 90% or more (almost completely withered))
same,"Herbicidal effect by foliage application, M: velvetleaf",velvetleaf [11],5 (Herbicidal rate of 90% or more (almost completely withered))
same,"Herbicidal effect by foliage application, P: chickweed",chickweed [12],5 (Herbicidal rate of 90% or more (almost completely withered))
same,"P: chickweed, herbicidal effect grade",chickweed [13],3 (Herbicidal rate of 40% or more and less than 70%)
same,"H: barnyard grass, herbicidal effect grade",barnyard grass [14],4 (Herbicidal rate of 70% or more and less than 90%)
same,"Herbicidal effect by foliage application, J: blackgrass",blackgrass [15],3 (Herbicidal rate of 40% or more and less than 70%)
same,"Herbicidal effect by foliage application, G: green foxtail",green foxtail [16],5 (Herbicidal rate of 90% or more (almost completely withered))
same,"R: persian speedwell, herbicidal effect grade",persian speedwell [17],5 (Herbicidal rate of 90% or more (almost completely withered))
same,"N: redroot pigweed, herbicidal effect grade",redroot pigweed [18],5 (Herbicidal rate of 90% or more (almost completely withered))
same,"J: blackgrass, herbicidal effect grade",blackgrass [19],3 (Herbicidal rate of 40% or more and less than 70%)
same,"Herbicidal effect, B: Japanese bulrush",Japanese bulrush,2 (Herbicidal rate of 20% or more and less than 40%)
same,"Herbicidal effect by foliage application, Q: false cleavers",false cleavers,5 (Herbicidal rate of 90% or more (almost completely withered))
same,"Herbicidal effect by foliage application, N: redroot pigweed",redroot pigweed [20],5 (Herbicidal rate of 90% or more (almost completely withered))
same,"Herbicidal effect by foliage application, F: southern crabgrass",southern crabgrass [21],2 (Herbicidal rate of 20% or more and less than 40%)
same,"Herbicidal effect by foliage application, L: windgrass",windgrass [22],4 (Herbicidal rate of 70% or more and less than 90%)
same,"Herbicidal effect by foliage application, H: barnyard grass",barnyard grass [23],4 (Herbicidal rate of 70% or more and less than 90%)
same,"M: velvetleaf, herbicidal effect grade",velvetleaf [24],5 (Herbicidal rate of 90% or more (almost completely withered))
same,"Herbicidal effect, A: late watergrass",late watergrass,2 (Herbicidal rate of 20% or more and less than 40%)
same,"I: wild oat, herbicidal effect grade",wild oat [25],0 (Herbicidal rate of 5% or less (almost no effect))

# Source: patent US20230085307A1, “PYRIDAZINONE COMPOUND AND HERBICIDE” (NISSAN CHEMICAL CORPORATION, priority 2019, published 2023)
